Tests used:
[1] = test system: Blood; test: Biodistribution in blood of NSG mouse xenografted with human PC-3 tumor at 0.37 to 0.74 MBq, iv after 1 hr by gamma counting analysis in presence of BAY86-7548; type: ADME, organism-based; details: in vivo
[2] = test system: Lung; test: Biodistribution in lung of NSG mouse xenografted with human PC-3 tumor at 0.37 to 0.74 MBq, iv after 1 hr by gamma counting analysis in presence of BAY86-7548; type: ADME, organism-based; details: in vivo
[3] = test system: Spleen; test: Biodistribution in spleen of NSG mouse xenografted with human PC-3 tumor at 0.37 to 0.74 MBq, iv after 1 hr by gamma counting analysis in presence of BAY86-7548; type: ADME, organism-based; details: in vivo
[4] = test system: Heart; test: Biodistribution in heart of NSG mouse xenografted with human PC-3 tumor at 0.37 to 0.74 MBq, iv after 1 hr by gamma counting analysis; type: ADME, organism-based; details: in vivo
[5] = test system: Pancreas; test: Biodistribution in pancreas of NSG mouse xenografted with human PC-3 tumor at 0.37 to 0.74 MBq, iv after 1 hr by gamma counting analysis; type: ADME, organism-based; details: in vivo
[6] = test system: Heart; test: Biodistribution in heart of NSG mouse xenografted with human PC-3 tumor at 0.37 to 0.74 MBq, iv after 0.5 hrs by gamma counting analysis; type: ADME, organism-based; details: in vivo
[7] = test system: Liver; test: Biodistribution in liver of NSG mouse xenografted with human PC-3 tumor at 0.37 to 0.74 MBq, iv after 1 hr by gamma counting analysis; type: ADME, organism-based; details: in vivo
[8] = test system: Bone; test: Biodistribution in bone of NSG mouse xenografted with human PC-3 tumor at 0.37 to 0.74 MBq, iv after 1 hr by gamma counting analysis; type: ADME, organism-based, Bone element; details: in vivo
[9] = test system: Mus musculus; test: Biodistribution in adrenal gland of NSG mouse xenografted with human PC-3 tumor at 0.37 to 0.74 MBq, iv after 2 hrs by gamma counting analysis; type: ADME, organism-based; details: in vivo
[10] = test system: Pancreas; test: Biodistribution in pancreas of NSG mouse xenografted with human PC-3 tumor at 0.37 to 0.74 MBq, iv after 1 hr by gamma counting analysis in presence of BAY86-7548; type: ADME, organism-based; details: in vivo
[11] = test system: Mus musculus; test: Biodistribution in seminal gland of NSG mouse xenografted with human PC-3 tumor at 0.37 to 0.74 MBq, iv after 1 hr by gamma counting analysis in presence of BAY86-7548; type: ADME, organism-based; details: in vivo
[12] = test system: Mus musculus; test: Biodistribution in seminal gland of NSG mouse xenografted with human PC-3 tumor at 0.37 to 0.74 MBq, iv after 2 hrs by gamma counting analysis; type: ADME, organism-based; details: in vivo
[13] = test system: Kidney; test: Biodistribution in kidney of NSG mouse xenografted with human PC-3 tumor at 0.37 to 0.74 MBq, iv after 0.5 hrs by gamma counting analysis; type: ADME, organism-based; details: in vivo
[14] = test system: Intestine; test: Biodistribution in intestine of NSG mouse xenografted with human PC-3 tumor at 0.37 to 0.74 MBq, iv after 1 hr by gamma counting analysis in presence of BAY86-7548; type: ADME, organism-based; details: in vivo
[15] = test system: Blood; test: Biodistribution in blood of NSG mouse xenografted with human PC-3 tumor at 0.37 to 0.74 MBq, iv after 0.5 hrs by gamma counting analysis; type: ADME, organism-based; details: in vivo
[16] = test system: Lung; test: Biodistribution in lung of NSG mouse xenografted with human PC-3 tumor at 0.37 to 0.74 MBq, iv after 1 hr by gamma counting analysis; type: ADME, organism-based; details: in vivo
[17] = test system: Brain; test: Biodistribution in brain of NSG mouse xenografted with human PC-3 tumor at 0.37 to 0.74 MBq, iv after 2 hrs by gamma counting analysis; type: ADME, organism-based; details: in vivo
[18] = Biodistribution in fat of NSG mouse xenografted with human PC-3 tumor at 0.37 to 0.74 MBq, iv after 2 hrs by gamma counting analysis; type: ADME, organism-based, Adipose tissue; details: in vivo
[19] = test system: Plasma; test: Metabolic stability in mouse plasma after 0.5 to 2 hrs by HPLC analysis; type: ADME, cell-free
[20] = test system: Brain; test: Biodistribution in brain of NSG mouse xenografted with human PC-3 tumor at 0.37 to 0.74 MBq, iv after 1 hr by gamma counting analysis in presence of BAY86-7548; type: ADME, organism-based; details: in vivo
[21] = test system: Pancreas; test: Biodistribution in pancreas of NSG mouse xenografted with human PC-3 tumor at 0.37 to 0.74 MBq, iv after 2 hrs by gamma counting analysis; type: ADME, organism-based; details: in vivo
[22] = test system: Bone; test: Biodistribution in bone of NSG mouse xenografted with human PC-3 tumor at 0.37 to 0.74 MBq, iv after 1 hr by gamma counting analysis in presence of BAY86-7548; type: ADME, organism-based, Bone element; details: in vivo
[23] = test system: Muscle tissue; test: Biodistribution in muscle of NSG mouse xenografted with human PC-3 tumor at 0.37 to 0.74 MBq, iv after 0.5 hrs by gamma counting analysis; type: ADME, organism-based; details: in vivo
[24] = test system: Mus musculus; test: Biodistribution in seminal gland of NSG mouse xenografted with human PC-3 tumor at 0.37 to 0.74 MBq, iv after 1 hr by gamma counting analysis; type: ADME, organism-based; details: in vivo
[25] = test system: Intestine; test: Biodistribution in intestine of NSG mouse xenografted with human PC-3 tumor at 0.37 to 0.74 MBq, iv after 2 hrs by gamma counting analysis; type: ADME, organism-based; details: in vivo
[26] = test system: Lung; test: Biodistribution in lung of NSG mouse xenografted with human PC-3 tumor at 0.37 to 0.74 MBq, iv after 0.5 hrs by gamma counting analysis; type: ADME, organism-based; details: in vivo
[27] = test system: Spleen; test: Biodistribution in spleen of NSG mouse xenografted with human PC-3 tumor at 0.37 to 0.74 MBq, iv after 0.5 hrs by gamma counting analysis; type: ADME, organism-based; details: in vivo
[28] = test system: Mus musculus; test: Biodistribution in testis of NSG mouse xenografted with human PC-3 tumor at 0.37 to 0.74 MBq, iv after 0.5 hrs by gamma counting analysis; type: ADME, organism-based; details: in vivo
[29] = test system: Bone; test: Biodistribution in bone of NSG mouse xenografted with human PC-3 tumor at 0.37 to 0.74 MBq, iv after 2 hrs by gamma counting analysis; type: ADME, organism-based, Bone element; details: in vivo
[30] = test system: Spleen; test: Biodistribution in spleen of NSG mouse xenografted with human PC-3 tumor at 0.37 to 0.74 MBq, iv after 2 hrs by gamma counting analysis; type: ADME, organism-based; details: in vivo
[31] = test system: Lung; test: Biodistribution in lung of NSG mouse xenografted with human PC-3 tumor at 0.37 to 0.74 MBq, iv after 2 hrs by gamma counting analysis; type: ADME, organism-based; details: in vivo
[32] = Biodistribution in fat of NSG mouse xenografted with human PC-3 tumor at 0.37 to 0.74 MBq, iv after 0.5 hrs by gamma counting analysis; type: ADME, organism-based, Adipose tissue; details: in vivo
[33] = test system: Muscle tissue; test: Biodistribution in muscle of NSG mouse xenografted with human PC-3 tumor at 0.37 to 0.74 MBq, iv after 1 hr by gamma counting analysis; type: ADME, organism-based; details: in vivo

Question: With CC(C)C[C@H](NC(=O)C[C@H](O)[C@H](CC(C)C)NC(=O)[C@H](Cc1cnc[nH]1)NC(=O)CNC(=O)[C@@H](NC(=O)[C@H](C)NC(=O)[C@H](Cc1c[nH]c2ccccc12)NC(=O)[C@H](CCC(N)=O)NC(=O)[C@@H](Cc1ccccc1)NC(=O)CN1CCC(NC(=O)Cn2cc(C[N+](C)(C)C[B-](F)(F)[17F])nn2)CC1)C(C)C)C(N)=O as the molecule, how does the Drug uptake [1] read?
Answer: 0.48 % ID/g

Question: And the Drug uptake [2]?
Answer: 0.71 % ID/g

Question: What about the Drug uptake [3] of the same molecule?
Answer: 0.32 % ID/g

Question: What about the Drug uptake [4] of the same molecule?
Answer: 0.13 % ID/g

Question: What about the Drug uptake [5] of the same molecule?
Answer: 4.16 % ID/g

Question: What about the Drug uptake [6] of the same molecule?
Answer: 0.54 % ID/g

Question: What about the Drug uptake [7] of the same molecule?
Answer: 0.78 % ID/g

Question: And the Drug uptake [8]?
Answer: 0.28 % ID/g

Question: And the Drug uptake [9]?
Answer: 0.29 % ID/g

Question: And the Drug uptake [10]?
Answer: 0.42 % ID/g

Question: What about the Drug uptake [11] of the same molecule?
Answer: 0.12 % ID/g

Question: What about the Drug uptake [12] of the same molecule?
Answer: 0.15 % ID/g

Question: What about the Drug uptake [13] of the same molecule?
Answer: 6.6 % ID/g

Question: What about the Drug uptake [14] of the same molecule?
Answer: 0.25 % ID/g

Question: What about the Drug uptake [15] of the same molecule?
Answer: 2.1 % ID/g

Question: What about the Drug uptake [16] of the same molecule?
Answer: 0.96 % ID/g

Question: And the Drug uptake [17]?
Answer: 0.01 % ID/g

Question: And the Drug uptake [18]?
Answer: 0.05 % ID/g

Question: What about the Stability [19] of the same molecule?
Answer: Stable

Question: What about the Drug uptake [20] of the same molecule?
Answer: 0.03 % ID/g

Question: What about the Drug uptake [21] of the same molecule?
Answer: 4.75 % ID/g

Question: What about the Drug uptake [22] of the same molecule?
Answer: 0.25 % ID/g

Question: And the Drug uptake [23]?
Answer: 0.38 % ID/g

Question: And the Drug uptake [24]?
Answer: 0.7 % ID/g

Question: What about the Drug uptake [25] of the same molecule?
Answer: 8.67 % ID/g

Question: And the Drug uptake [26]?
Answer: 1.96 % ID/g

Question: And the Drug uptake [27]?
Answer: 1.08 % ID/g

Question: What about the Drug uptake [28] of the same molecule?
Answer: 0.42 % ID/g

Question: And the Drug uptake [29]?
Answer: 0.18 % ID/g

Question: And the Drug uptake [30]?
Answer: 0.26 % ID/g

Question: And the Drug uptake [31]?
Answer: 0.4 % ID/g

Question: And the Drug uptake [32]?
Answer: 0.25 % ID/g

Question: What about the Drug uptake [33] of the same molecule?
Answer: 0.07 % ID/g
